From patent US8715947B2, “Inhibition of the interaction between 5T4 oncofoetal glycoproteins and CXC chemokine receptors as a method of identifying chemotaxis inhibitors” (Cancer Research Technology Limited, priority 2009, dated 2014)
“Also recorded” adds a separate entry of the source.

What was measured:
WT-ES cells = experiment: CXCL12 chemotaxis of WT-ES cells in transwell chambers; type: cell-based, mouse
Experimental: (§1) Chemotaxis was assessed using transwell chambers as previously described for cellular motility assays [16; the contents of which are expressly incorporated herein in their entirety] in the presence or absence of the chemokine CXCL12 (R&D systems), at a concentration of 10 ng/well for ES cell experiments, and 30 ng/well for all others. Inhibition studies were performed in the presence of 10 μM Diprotin A (Sigma) for CD26, 10 μM AMD3100 (Sigma) for CXCR4 or 10 μg/well mouse anti-CXCL12 (R&D systems) or Pertussis Toxin (Sigma, 10 ng/ml). For m5T4 specific mAb inhibition of chemotaxis or control Ig; antibodies were premixed with 50,000 differentiating WT-ES or MEF cells/ml and added to the transwell chambers as above. CXCL16 (R&D 10 ng/ml), the ligand for CXCR6 and CXCL10 (R&D 100 ng/ml), a ligand for CXCR3 were used to assess chemotaxis in undifferentiated and/or differentiating WT and 5T4KO ES cells.

ERK phosphorylation = ERK phosphorylation in MEFs by Western blot; type: cell-based, mouse; conditions: 50 μM PD98059, 50 μM LY294002 or 10 μM AMD3100; for increase in ERK phosphorylation in response to CXCL12 stimulation: WT MEFs; for increase in ERK1/2 phosphorylation in response to PMA stimulation: WT and 5T4KO MEFs
Experimental: Western blots were carried out using a BioRad Mini-PROTEAN Tetra (Thermo Fisher) supplemented with protease and phosphatase inhibitor cocktails (Thermo Fisher). RIPA buffer (50 mM Tris-Cl pH 7.4, 150 mM NaCl, 1% NP40, 0.25% Na-deoxycholate, 1 mM PMSF and protease and phosphatase inhibitor cocktail) was used as an alternative method of cell lysis. […] Other primary antibodies used were ERK1/2, phospho-ERK1/2 (Thr202/Tyr204/Thr185/Tyr187), AKT and phospho-AKT (Thr308) (Cell Signalling Technology) at 1:1000. Following secondary antibody labelling using appropriate HRP conjugates (AbSerotec) hybridizing bands were detected using SuperSignal West Dura (Thermo Fischer). For immunoprecipitation experiments cells were lysed in M-PER (Thermo Fischer) according to manufacturer's instructions and enriched for the membrane fraction on a 45% sucrose gradient by ultracentrifugation. 100 μg of the membrane enriched fraction was incubated with 1 μg of rabbit polyclonal anti-CXCR4 (Abcam) or 1 μg of mouse anti-monoclonal h5T4 or appropriate irrelevant control antibodies for 1 hour at room temperature. A 50% slurry of Protein G beads (Amersham) was then added and incubated for 1 hour at room temperature. Beads were subsequently washed 7 times with 1 ml PBS+0.1% Triton X-100, and then resuspended in PAGE loading buffer (Thermo Fisher), boiled for 3 minutes and loaded onto 4-15% gradient gel and processed as described for Westerns above. Gels were run in Lamelli buffer (25 mM Tris-base, 192 mM glycine, 0.1% SDS). Antibodies to CXCR7 were used in western blot analysis of PAGE separated MEF cells solubilised 1%.

CXCR4 [1] = target: T1, CXCR4 (Mus musculus, UniProt P70658); conditions: in vivo; cited from earlier work
T1 sequence (P70658 whole entry): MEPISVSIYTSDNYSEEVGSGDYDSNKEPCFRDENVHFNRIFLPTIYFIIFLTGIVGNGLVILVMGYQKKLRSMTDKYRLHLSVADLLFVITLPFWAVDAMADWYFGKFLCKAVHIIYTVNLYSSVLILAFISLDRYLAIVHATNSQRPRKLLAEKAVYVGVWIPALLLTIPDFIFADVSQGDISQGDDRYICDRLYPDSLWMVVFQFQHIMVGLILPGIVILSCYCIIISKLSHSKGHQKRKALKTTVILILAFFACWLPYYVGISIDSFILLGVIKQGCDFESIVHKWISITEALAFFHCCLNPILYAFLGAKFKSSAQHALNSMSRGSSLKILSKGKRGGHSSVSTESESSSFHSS

CXCR4 [2] = target: T1, CXCR4; conditions: in vivo; cited from earlier work; remark: listed apart in the source
[3] = test system: primary murine embryonic fibroblasts; experiment: Immunofluorescence pattern of 5T4 and CXCR4 in primary murine embryonic fibroblasts after cytoskeleton, Golgi or microtubule disruption; type: cell-based, mouse; conditions: for cell surface expression and colocalisation of 5T4 and CXCR4 versus untreated controls: 985 nM cytochalasin D or 3.6 μM brefeldin A; for cell surface expression and colocalisation of 5T4 and CXCR4 after washout: one hour after washout
Experimental: Immunofluorescence In Situ. These studies were performed using methods described previously (39), with cells grown on 24 well glass bottomed plates, (Iwaki, supplied through Jencons) for ES cells the wells were pre coated with 0.1% gelatine. Primary antibodies used were rabbit anti-CXCR4, (5 μg/ml) (Abcam), rat-anti-DPIV (5 μg/ml), (R&D), mAb anti-human 5T4 (10 μg/ml,), mAb anti-m5T4, 9A7 (20 μg/ml), B3F1 (5 μg/ml), rabbit anti-CXCR7 (AbCam, 5 μg/ml), rat mAb anti-CXCR6 (R&D, 5 μg/ml), rat mAb anti-CXCR3 (R&D, 5 μg/ml), Alexa Fluor 488 mouse anti-myc tag clone 4A6 (Millipore) or appropriate isotype controls. Secondary detection was performed by incubation for 1 hour at 4° C. with species or IgG sub-class specific Alexa Fluor conjugated secondary antibodies (Invitrogen) (6 μg/ml) as appropriate for multiple antigen detection. Labelling of the endoplasmic reticulum and Golgi apparatus was performed using NBD C6-Ceramide or Endotracker, (Invitrogen, Molecular Probes) as per manufacturer's instructions. […]. F-Actin was labeled using Phaloidin-633 Alexa Fluor (Invitrogen). Microtubules were visualised by murine IgG recognizing β-tubulin (Cancer Research UK). Cells were imaged on a Zeiss Axiovert 200M with a plan-fluar ×100 1.45NA objective lens and a Roper Cascade EMCCD 512B camera. Illumination was achieved using a 300W Xenon system, (Sutter) which presented the system as an even field of illumination in addition to the appropriate neutral density and Schott filters to modulate the light source. Wavelength selection was achieved using external filter wheels, (Applied Scientific Instrumentation) and the ETSedat set, (Chroma). Data sets were captured with an axial resolution of 100 nm using the MS-2000 stage (Applied Scientific Instrumentation) and a lateral resolution of 0.1645 microns per pixel. The system was full controlled and automated via the FRAP-AI software, (MAG Biosystems/Metamorph). All of the data sets were deconvolved using Huygens (Scientific Volume Imaging) after which visualization and analysis was carried out using Imaris, (Bitplane). Colocalisation was assessed by analysis of the deconvolved images utilising ImarisColoc software (Bitplane) in manual mode. A 2D scatter plot showing intensity pairs in the image was thresholded to include only colocalized points in the three dimensional volume.
Primary murine embryonic fibroblasts were assessed for their pattern of 5T4 and CXCR4 expression by immunofluorescence following disruption of the cytoskeleton, Golgi or microtubules for 24 hours with cytochalasin D, brefeldin A or nocodazole respectively. Cytoskeleton, Golgi and microtubule disruption was determined by immunofluorescence with AlexaFluor 633 conjugated phalloidin, BODIPY labeled NBD C6 ceramide and anti-tubulin antibodies respectively. […] Clearly plasma membrane detection of co-localized 5T4/CXCR4 molecules is dependent on microtubules and the molecules are not obligatorily associated at the Golgi.

5T4KO ES cells = experiment: CXCL12 chemotaxis of 5T4KO ES cells in transwell chambers; type: cell-based, mouse; conditions: undifferentiated or differentiating 5T4KO ES cells; 10 μM
Experimental: as §1

JEG-3 = experiment: CXCL12 chemotaxis of JEG-3 choriocarcinoma cells; type: cell-based, human; conditions: 10 μM diprotin A, 30 ng/well CXCL12
Experimental: as §1

SKOV3 = experiment: CXCL12 chemotaxis of SKOV3 ovarian carcinoma cells; type: cell-based, human; conditions: 10 μM diprotin A, 10 ng/well CXCL12
Experimental: as §1, with “at a concentration of 10 ng/well for ES cell experiments, and 30 ng/well for all others.” left out
A series of 5T4 constructs were built for this study and cloned into pCMVα, and the retroviral vector SFβ91 [32] that we had previously inserted the cDNA cassette eGFP under the transcriptional control of an IRES (Clonetech). […] A multiplicity of 30 infectious units per cell led to 100% of cells expressing m5T4 or h5T4 or GFP at 48 hours as assessed by FACS and when other biological assessments were made. […] After 3 days, GFP positive cells were FACS sorted and assessed for 5T4 expression and chemotaxis to CXCL12.

CAOV3 = experiment: CXCL12 chemotaxis of CAOV3 ovarian carcinoma cells; type: cell-based, human; conditions: 10 μM diprotin A, 10 ng/well CXCL12
Experimental: as §1, with “at a concentration of 10 ng/well for ES cell experiments, and 30 ng/well for all others.” left out

WT and 5T4KO ES cells = experiment: CXCL10 chemotaxis of ES cells; type: cell-based, mouse; conditions: 100 ng/well CXCL10

Compound: c1cc(CN2CCCNCCNCCCNCC2)ccc1CN1CCCNCCNCCCNCC1 [AMD3100]
- chemotaxis to CXCL12 with CXCR4 inhibitor (WT-ES cells; differentiating WT-ES cells, 2 hr pre-incubation with 10 μM): blocked
- chemotaxis to CXCL12 with CXCR4 inhibitor (WT-ES cells; undifferentiated WT-ES cells, 10 μM): no effect
- increase in ERK phosphorylation in response to CXCL12 stimulation (ERK phosphorylation): prevented
- increase in ERK1/2 phosphorylation in response to PMA stimulation (ERK phosphorylation): independent of both CXCR4 and PI3K activity
- allergic lung inflammation and airway hyperreactivity (CXCR4 [1]): attenuates

Compound: c1ccc(CNCc2ccc(CN3CCCNCCNCCCNCC3)cc2)nc1 [AMD3465]
- pulmonary granuloma formation (CXCR4 [2]): eliminates

Compound: COc1cccc(-c2cc(=O)c3ccccc3o2)c1N [PD98059]
- increase in ERK phosphorylation in response to CXCL12 stimulation (ERK phosphorylation): prevented
- increase in ERK1/2 phosphorylation in response to PMA stimulation (ERK phosphorylation): blocked by MEK1 inhibition

Compound: C[C@H]1CCC/C=C/[C@@H]2C[C@H](O)C[C@H]2[C@H](O)/C=C/C(=O)O1 [brefeldin A]
- cell surface expression and colocalisation of 5T4 and CXCR4 versus untreated controls ([3]; 24 hours): reduced levels of cell surface expression of both antigens
- cell surface expression and colocalisation of 5T4 and CXCR4 after washout [3]: returned to normal levels; also recorded: returned to levels with marked cell surface colocalisation similar to that of controls

Compound: C=C1[C@@H](C)[C@H]2[C@H](Cc3ccccc3)NC(=O)[C@]23[C@H](OC(C)=O)/C=C/[C@@](C)(O)C(=O)[C@@H](C)C/C=C/[C@H]3[C@@H]1O [cytochalasin D]
- polymerized actin filaments (phalloidin immunofluorescence) ([3]; 24 hours treatment, 985 nM cytochalasin D): no polymerized actin filaments were detectable
- cell surface expression and colocalisation of 5T4 and CXCR4 versus untreated controls ([3]; 24 hours): no detectable differences

Compound: CC[C@H](C)[C@H](N)C(=O)N1CCC[C@H]1C(=O)N[C@H](C(=O)O)[C@@H](C)CC [diprotin A]
- chemotactic response to CXCL12 with CD26 inhibitor (5T4KO ES cells): did not restore chemotactic behaviour; also recorded: no change in chemotactic response
- CXCL12-mediated chemotaxis with CD26 inhibitor (JEG-3): only evident in the presence
- CXCL12 chemotaxis with CD26 inhibitor (SKOV3): further enhanced
- CXCL12 chemotaxis with CD26 inhibitor (CAOV3): further enhanced
- chemotaxis towards CXCL10 with CD26 inhibitor (WT and 5T4KO ES cells; undifferentiated ES cells, 10 μM): acquire increased chemotaxis towards CXCL10

Compound: COC(=O)Nc1nc2ccc(C(=O)c3cccs3)cc2[nH]1 [nocodazole]
- cell surface detection of 5T4 ([3]; 24 hours, 332 nM nocodazole): remained detectable at the cell surface albeit at a diminished level; also recorded: still detectable at the cell surface albeit at a diminished level
- cell surface detection of CXCR4 ([3]; 24 hours, 332 nM nocodazole): no cell surface detection of CXCR4
- cell surface expression and colocalisation of 5T4 and CXCR4 after washout [3]: both antigens were detectable at the cell surface with marked colocalisation similar to controls

Compound: pertussis toxin
- CXCL10 related chemotaxis with Gi protein inhibitor (WT and 5T4KO ES cells; WT and KO differentiating ES cells, 10 ng/ml): inhibits CXCL10 related chemotaxis
